# From the supplement of paper PMC10307832
# Legend:
# Assay in all cases: relative viability (nuclei count vs DMSO), 5 days (fraction); higher = more cells survive
# 201T = test system: 201T
# Procedure, shortened: (§1)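 Relative viability equals treated-well nuclei counts divided by vehicle-well nuclei counts. Counts came from 4× images of lung cancer cell lines grown in 1536-well plates for 5 days after pin-tool dosing on the day after seeding. Dosing used one drug alone or a fixed anchor-drug dose plus five library-drug doses (not always all listed) in √10 steps, and values are medians of duplicate plates.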
# COR-L23 = test system: COR-L23
# Procedure, shortened: as §1
# EPLC-272H = test system: EPLC-272H
# Procedure, shortened: as §1
# H3255 = test system: H3255
# Procedure, shortened: as §1
# HCC-15 = test system: HCC-15
# Procedure, shortened: as §1
# LOU-NH91 = test system: LOU-NH91
# Procedure, shortened: as §1
# NCI-H1650 = test system: NCI-H1650
# Procedure, shortened: as §1
# NCI-H1734 = test system: NCI-H1734
# Procedure, shortened: as §1
# NCI-H1793 = test system: NCI-H1793
# Procedure, shortened: as §1
# NCI-H2023 = test system: NCI-H2023
# Procedure, shortened: as §1
# NCI-H2170 = test system: NCI-H2170
# Procedure, shortened: as §1
# NCI-H2347 = test system: NCI-H2347
# Procedure, shortened: as §1
# NCI-H2405 = test system: NCI-H2405
# Procedure, shortened: as §1
# NCI-H3122 = test system: NCI-H3122
# Procedure, shortened: as §1
# NCI-H322M = test system: NCI-H322M
# Procedure, shortened: as §1
# NCI-H441 = test system: NCI-H441
# Procedure, shortened: as §1
# NCI-H520 = test system: NCI-H520
# Procedure, shortened: as §1
# NCI-H647 = test system: NCI-H647
# Procedure, shortened: as §1
# PC-14 = test system: PC-14
# Procedure, shortened: as §1
# SW 900 = test system: SW 900
# Procedure, shortened: as §1
# UMC-11 = test system: UMC-11
# Procedure, shortened: as §1
smiles,measurement,setting,value
Nc1ccn([C@@H]2O[C@H](CO)[C@@H](O)[C@@H]2O)c(=O)n1 [Cytarabine] + Nc1ncn([C@H]2C[C@H](O)[C@@H](CO)O2)c(=O)n1 [Decitabine] (partner 2 µM),relative viability,201T; first compound 0.005 µM,0.847
same,relative viability,201T; first compound 0.01581 µM,0.853
same,relative viability,201T; first compound 0.05 µM,0.802
same,relative viability,201T; first compound 0.1581 µM,0.72
same,relative viability,201T; first compound 0.5 µM,0.668
same,relative viability,COR-L23; first compound 0.005 µM,0.43
same,relative viability,COR-L23; first compound 0.01581 µM,0.377
same,relative viability,COR-L23; first compound 0.05 µM,0.341
same,relative viability,COR-L23; first compound 0.1581 µM,0.205
same,relative viability,COR-L23; first compound 0.5 µM,0.156
same,relative viability,EPLC-272H; first compound 0.005 µM,0.403
same,relative viability,EPLC-272H; first compound 0.01581 µM,0.358
same,relative viability,EPLC-272H; first compound 0.05 µM,0.346
same,relative viability,EPLC-272H; first compound 0.1581 µM,0.224
same,relative viability,EPLC-272H; first compound 0.5 µM,0.247
same,relative viability,H3255; first compound 0.005 µM,0.732
same,relative viability,H3255; first compound 0.01581 µM,0.555
same,relative viability,H3255; first compound 0.05 µM,0.637
same,relative viability,H3255; first compound 0.1581 µM,0.588
same,relative viability,H3255; first compound 0.5 µM,0.375
same,relative viability,HCC-15; first compound 0.005 µM,0.511
same,relative viability,HCC-15; first compound 0.01581 µM,0.528
same,relative viability,HCC-15; first compound 0.05 µM,0.594
same,relative viability,HCC-15; first compound 0.1581 µM,0.462
same,relative viability,HCC-15; first compound 0.5 µM,0.464
same,relative viability,LOU-NH91; first compound 0.005 µM,0.751
same,relative viability,LOU-NH91; first compound 0.01581 µM,0.742
same,relative viability,LOU-NH91; first compound 0.05 µM,0.696
same,relative viability,LOU-NH91; first compound 0.1581 µM,0.545
same,relative viability,LOU-NH91; first compound 0.5 µM,0.491
same,relative viability,NCI-H1650; first compound 0.005 µM,0.294
same,relative viability,NCI-H1650; first compound 0.01581 µM,0.286
same,relative viability,NCI-H1650; first compound 0.05 µM,0.276
same,relative viability,NCI-H1650; first compound 0.1581 µM,0.17
same,relative viability,NCI-H1650; first compound 0.5 µM,0.172
same,relative viability,NCI-H1734; first compound 0.005 µM,0.439
same,relative viability,NCI-H1734; first compound 0.01581 µM,0.27
same,relative viability,NCI-H1734; first compound 0.05 µM,0.188
same,relative viability,NCI-H1734; first compound 0.1581 µM,0.131
same,relative viability,NCI-H1734; first compound 0.5 µM,0.138
same,relative viability,NCI-H1793; first compound 0.005 µM,0.585
same,relative viability,NCI-H1793; first compound 0.01581 µM,0.35
same,relative viability,NCI-H1793; first compound 0.05 µM,0.336
same,relative viability,NCI-H1793; first compound 0.1581 µM,0.212
same,relative viability,NCI-H1793; first compound 0.5 µM,0.237
same,relative viability,NCI-H2023; first compound 0.005 µM,0.169
same,relative viability,NCI-H2023; first compound 0.01581 µM,0.116
same,relative viability,NCI-H2023; first compound 0.05 µM,0.114
same,relative viability,NCI-H2023; first compound 0.1581 µM,0.0751
same,relative viability,NCI-H2023; first compound 0.5 µM,0.0656
same,relative viability,NCI-H2170; first compound 0.005 µM,0.393
same,relative viability,NCI-H2170; first compound 0.01581 µM,0.346
same,relative viability,NCI-H2170; first compound 0.05 µM,0.355
same,relative viability,NCI-H2170; first compound 0.1581 µM,0.254
same,relative viability,NCI-H2170; first compound 0.5 µM,0.241
same,relative viability,NCI-H2347; first compound 0.005 µM,0.61
same,relative viability,NCI-H2347; first compound 0.01581 µM,0.56
same,relative viability,NCI-H2347; first compound 0.05 µM,0.507
same,relative viability,NCI-H2347; first compound 0.1581 µM,0.537
same,relative viability,NCI-H2347; first compound 0.5 µM,0.573
same,relative viability,NCI-H2405; first compound 0.005 µM,0.666
same,relative viability,NCI-H2405; first compound 0.01581 µM,0.569
same,relative viability,NCI-H2405; first compound 0.05 µM,0.503
same,relative viability,NCI-H2405; first compound 0.1581 µM,0.342
same,relative viability,NCI-H2405; first compound 0.5 µM,0.321
same,relative viability,NCI-H3122; first compound 0.005 µM,0.459
same,relative viability,NCI-H3122; first compound 0.01581 µM,0.383
same,relative viability,NCI-H3122; first compound 0.05 µM,0.374
same,relative viability,NCI-H3122; first compound 0.1581 µM,0.228
same,relative viability,NCI-H3122; first compound 0.5 µM,0.26
same,relative viability,NCI-H322M; first compound 0.005 µM,0.687
same,relative viability,NCI-H322M; first compound 0.01581 µM,0.608
same,relative viability,NCI-H322M; first compound 0.05 µM,0.472
same,relative viability,NCI-H322M; first compound 0.1581 µM,0.472
same,relative viability,NCI-H322M; first compound 0.5 µM,0.448
same,relative viability,NCI-H441; first compound 0.005 µM,0.289
same,relative viability,NCI-H441; first compound 0.01581 µM,0.186
same,relative viability,NCI-H441; first compound 0.05 µM,0.268
same,relative viability,NCI-H441; first compound 0.1581 µM,0.182
same,relative viability,NCI-H441; first compound 0.5 µM,0.153
same,relative viability,NCI-H520; first compound 0.005 µM,0.48
same,relative viability,NCI-H520; first compound 0.01581 µM,0.564
same,relative viability,NCI-H520; first compound 0.05 µM,0.53
same,relative viability,NCI-H520; first compound 0.1581 µM,0.343
same,relative viability,NCI-H520; first compound 0.5 µM,0.349
same,relative viability,NCI-H647; first compound 0.005 µM,0.307
same,relative viability,NCI-H647; first compound 0.01581 µM,0.239
same,relative viability,NCI-H647; first compound 0.05 µM,0.258
same,relative viability,NCI-H647; first compound 0.1581 µM,0.108
same,relative viability,NCI-H647; first compound 0.5 µM,0.0719
same,relative viability,PC-14; first compound 0.005 µM,0.161
same,relative viability,PC-14; first compound 0.01581 µM,0.0896
same,relative viability,PC-14; first compound 0.05 µM,0.114
same,relative viability,PC-14; first compound 0.1581 µM,0.0408
same,relative viability,PC-14; first compound 0.5 µM,0.0434
same,relative viability,SW 900; first compound 0.005 µM,0.384
same,relative viability,SW 900; first compound 0.01581 µM,0.344
same,relative viability,SW 900; first compound 0.05 µM,0.325
same,relative viability,SW 900; first compound 0.1581 µM,0.199
same,relative viability,SW 900; first compound 0.5 µM,0.287
same,relative viability,UMC-11; first compound 0.005 µM,0.547
same,relative viability,UMC-11; first compound 0.01581 µM,0.521
same,relative viability,UMC-11; first compound 0.05 µM,0.328
same,relative viability,UMC-11; first compound 0.1581 µM,0.32
same,relative viability,UMC-11; first compound 0.5 µM,0.306
